| melting point [°C] | Structure (SMILES) |
| --- | --- |
| 167 to 168 | CCOC(=O)c1cc2c(nc(C)n2C)c2c1CCC1(Cc3ccccc3C1)N2 |
| 225 to 226 | CSc1ccc(NC(=O)N2CC(c3ccc(C(F)(F)F)cn3)C(c3ccc(Cl)cc3)=N2)cc1 (stereo not drawn) |
| 115 to 117 | COc1ccc2cc(CN(C)C(=O)c3ccc(Oc4cc(Cl)cc(Cl)c4)o3)ccc2c1Br |
| 127 to 128 | CCCCC(CC)n1nnc2c(Nc3c(Br)cc(OC)cc3OC)nc(C)cc21 (stereo not drawn) |
| 268 to 272 | Cc1ccc(C(=O)C2=C(O)C(=O)N(c3ccc(C)nn3)C2c2ccc(OC(C)C)cc2)cc1 (stereo not drawn) |
| 94 to 98 | CCCCn1c(=O)n(CCC)c(=O)c2c3n(nc21)CCCN3C |
| 174 to 180 | c1ccc(-n2c3c(c4ccccc42)CCNCC3)cc1 |
| 230 | O=C(Nc1ccncc1)c1ccc(OC(F)F)c2oc3ccccc3c12 |
| 132 to 134 | COc1ccc(-n2nnnc2C)cc1C=O |
| 72 to 74.5 | CC(C)(C)OC(=O)NCCCCC(N)C(=O)Nc1ccccc1 (stereo not drawn) |
| 184 to 185 | CSc1ccc(CSc2nnc(-c3ccc4[nH]ncc4c3)o2)cc1C(F)(F)F |
| 259 to 260 | CC(C)c1onc(-c2c(Cl)cccc2Cl)c1COc1ccc(NCc2ccc(C(=O)O)cc2)c(C(F)(F)F)n1 |
| 136 to 137 | CC1CCc2ncc(C(=O)NN)c(=O)n21 (stereo not drawn) |
| 177 to 178 | CCCc1nc2cccc(C(=O)OC)c2n1Cc1ccc(-c2ccccc2C(=N)NOC(C)=O)cc1 |
| 112 | CC1CCCN(c2ccc([N+](=O)[O-])cc2C(=O)c2ccc(Cl)cc2)C1 (stereo not drawn) |
| 227 to 229 | CCc1nc2c(C)cc(C)nc2n1Cc1ccc(C(c2ccccc2)C(CC)C(=O)O)cc1 (stereo not drawn) |
| 179 to 180 | COc1cc(O)c2c(=O)c(OC)c(-c3ccc(OC(=O)C(O)C(O)C(=O)O)c(OC)c3)oc2c1 (stereo not drawn) |
| 194 to 196 | COC(=O)c1c(C)[nH]c(=S)n1Nc1cccc(Cl)c1 |
| 166 to 167 | Cc1ccc2c(c1)S/C(=C(/N)c1ccccc1)C2=O |
| 213 to 215 | O=C1c2cccnc2N(c2ccccc2)C(=O)C12CCCCO2 (stereo not drawn) |
| 196 to 197 | Cc1cc(Br)c2c(c1)C(C(=O)O)c1ccccc1CO2 (stereo not drawn) |
| 188 to 192 | O=C(CCl)Nc1csc(NC(=O)CCl)n1 |
| 90 to 92 | COC(=S)c1cc(C)nc(Cl)n1 |
| 104 to 105 | COc1ccc(-c2ccc(C=O)c3occc23)cc1 |

| melting point [°C] | Structure (SMILES) |
| --- | --- |
| 96 to 98 | O=C(CBr)Nc1cccc(OC(=O)CBr)c1 |
| 170 to 171 | Fc1cc2[nH]c(S)nc2cc1N1CCCC1 |
| 96 to 98 | CCCCc1nc2c(N)nc3ccccc3c2o1 |
| 104 to 105 | COc1ccc(-c2cnc3ccc(-c4nnc(SCc5cccc(C(F)(F)F)c5)o4)cn23)cc1 |
| 167 to 171 | CC(=O)C(=Cc1cc(O)c(O)c(Cl)c1)C(C)=O |
| 123 | CN(Cc1ccc(-c2ccc(N3C[C@H](Cn4ccnn4)OC3=O)cc2F)cn1)CC(O)CO (stereo partly drawn) |
| 51 to 52 | CC(C)(C)Oc1ccc2cc(C=O)ccc2c1 |
| 264 to 266 | CNC(=O)c1ccc(N2CCN(Cc3cnc4c(c3)[nH]c(=O)n3cccc43)CC2)c(C)c1 |
| 163 to 164 | CCOC(=O)C1(F)C(=O)NC(=O)NC1O/N=C\c1ccc(C)o1 (stereo not drawn) |
| 81.5 to 82 | CCOC(=O)c1cc2cc(Cl)ccc2n1C |
| 182 | NC(CCCCCCCCC(N)=NO)=NO |
| 277 to 278 | COc1ccc2c(c1)[C@](C)(NC(=O)c1cc3cccc4c3n1CC4)C(=O)N2c1ccc(F)cc1 |
| 258 | O=c1c(-c2cccc(Cl)c2)coc2c(O)c(O)ccc12 |
| 100 to 101 | COC(=O)c1cc(-c2ncnc(C(F)F)c2Cl)c(F)cc1Cl |
| 188 to 192 | Nc1cccc(F)c1C(=O)NCC(=O)O |
| 190 to 194 | O=C(NO)c1cnc(N(CCO)Cc2cc3nc(-c4cccc5[nH]ncc45)nc(N4CCOCC4)c3s2)nc1 |
| 266 to 268 | CC(C)n1nc(-c2c(-c3ccccc3)nc(N)nc2-n2cncn2)ccc1=O |
| 132 to 134 | O=C(O)CCCCN(C(=O)c1ccc(Cl)cc1)c1ccc2c(c1)CCC2 |
| 131 to 133 | COc1ccc(C2=C(c3ccccc3)CCCc3cc(OC4CCCCO4)ccc32)cc1 (stereo not drawn) |
| 161 to 163 | COc1ccc(-c2cc(=Nc3c(C)cc(C)cc3C)n(C)c(N3CC=CCC3)n2)cc1OC |
| 132 to 135 | CCNC(=O)c1ccc(-c2ccc3nnn(C(C)(C)c4ccc5ncccc5c4)c3n2)cc1F |
| 60 to 61 | COC(=O)N1C2CCC1CC(=O)C2 |
| 200 to 232 | CCn1c(=O)c2[nH]c(C(C)C)nc2n(Cc2ccc3c(c2)OCO3)c1=O |
| 195 to 196 | CC[C@@H]1CN(c2c(F)c(N)c3c(=O)c(C(=O)O)cn(C4CC4)c3c2F)C[C@H]1N (relative stereo) |

| melting point [°C] | Structure (SMILES) |
| --- | --- |
| 254 to 255 | O=C(NC[C@H]1CN(c2cc(F)c(N3CCC(n4nccn4)CC3)c(F)c2)C(=O)O1)C(F)F |
| 183 to 184 | COc1ccc(C(=O)Nc2ccccc2)cc1Nc1cccc(C(F)(F)F)c1 |
| 69 | CCCC(CCC)(CCC)C(N)=O |
| 59 to 60 | CC(C)CNC(=O)C(C)(C)c1ccc(-c2cccn2C)cc1 |
| 113 | CC(C)(C)NC(=O)C#CBr |
| 189 to 193 | O=c1ccn(CCO)c(C(O)c2ccc(Br)cc2)c1O (stereo not drawn) |
| 173 to 174 | O=Cc1sccc1-c1noc2ccccc12 |
| 180 to 182 | CC(=O)Nc1cccc(-c2ccc3nc(-c4cccnc4N)n(-c4ccc(CNS(=O)(=O)c5ccccc5)cc4)c3n2)c1 |
| 124 to 126 | COC(=O)c1ccc(-c2ccc(Cl)cc2)nc1 |
| 209 to 211 | O=C(O)c1ccc2ccc(C(F)(F)F)nc2c1O |
| 44 to 45 | CCOC(=O)c1cc(-c2ccccc2)oc1C(F)(F)F |
| 164 to 165 | CN1CCC(O)(c2cccn2Cc2ccccc2F)CC1 |
| 218 | CN1CCN(C2=Nc3cc(Cl)c(Cl)cc3Nc3nn(C)nc32)CC1 |
| 195 to 196 | O=C(O)c1cc2c(s1)CCC2=O |
| 200 to 203 | O=C(O)[C@@H]1CN(C(=O)N(c2ccccc2)c2cccc(Cl)c2)CCN1C(=O)N(c1ccccc1)c1cccc(Cl)c1 |
| 255 to 258 | CCn1nccc1-c1ccc2[nH]c3c(cc(-c4ccc(Cl)cc4Cl)c(=O)n3C)c2c1 |
| 72 to 73 | CCCCCCCCCCCCCCCCCC(=O)c1ccc(O)c(C(=O)OC(C)C)c1 |
| 163 to 165 | Cc1cccc(C)c1C(=O)Oc1cc([N+](=O)[O-])cc([N+](=O)[O-])c1O |
| 179 to 180 | COc1nc(C)cnc1NS(=O)(=O)c1cccnc1-c1ccc(-c2ncon2)cc1 |
| 95 to 97 | CS(=O)(=O)c1sccc1SCc1ccccc1 |
| 121 to 123 | COCOc1c(NC(=O)Nc2ccccc2)cc(OC)cc1C(C)(C)C |
| 106 to 109 | CS(=O)(=O)c1cc(N)ccc1OC(F)(F)F |
| 102 to 104 | Cc1cccc2c(Cl)c(CCCl)nnc12 |
| 203 to 205 | CC(C)(C)OC(=O)NCCC(=O)NCc1cccc2c1CN(C1CCC(=O)NC1=O)C2=O (stereo not drawn) |

| Structure (SMILES) | melting point [°C] |
| --- | --- |
| Brc1ccc(-c2cn([C@H]3CN4CCC3CC4)nn2)s1 | 146 |

Source: a melting point compilation (Tetko et al.; mined from patent text by program, amines drawn as free bases though some values may be those of a salt)
